Source: patent EP1258532A1, “Thermostable D-hydantoinase from Bacillus circulans and the application thereof” (NATIONAL SCIENCE COUNCIL, priority 2001, dated 2002)

Key:
D-hydantoinase [1] = test: Effects of metal ions on D-hydantoinase activity; format: biochemical, Bacillus circulans; conditions: ion 500 µM; for Specific activity: 15 min at room temperature, substrate 10 mM D,L-p-HPH in 50 mM Tris-HCl (pH 8.0); for Relative activity: activity percentage based on that without adding ions
Protocol: Various divalent metal ions (as set forth in Table 1 below) were added to the vector pQE-bcidht in E. coli NovaBlue, crude extracts thereof or the purified D-hydantoinase of the present invention at 500 µM concentration. After 15 minutes of incubation at room temperature, 10 mM substrate of D,L-p-HPH (dissolved in 50 mM Tris-HCl (pH 8.0)) was added. The specific activity of the enzyme was then measured.

D-hydantoinase [2] = test: Effects of H2O2, NaCl and NH4Cl on D-hydantoinase activity; format: biochemical, Bacillus circulans; conditions: in the presence of 0.8 M H2O2; 25°C for 10 min, residual H2O2 removed with catalase; 800000 µM
Protocol: The vector pQE-bcidht in E. coli NovaBlue, crude extracts thereof or the purified D-hydantoinase of the present invention was incubated at 25°C for 10 min. Afterwards, the catalase was added to the solution to remove residual H2O2, and then the enzyme activity was measured. In addition, various concentrations of NaCl and NH4Cl were added to the solution containing D-hydantoinase. The solution was incubated at room temperature for 10 min, and the enzyme activity was measured.

Row | Substance | Specific activity (D-hydantoinase [1]) | Relative activity (D-hydantoinase [1]) | Relative activity (D-hydantoinase [1]; 15 min) | inhibition of D-hydantoinase activity (D-hydantoinase [1]; substrate 10 mM D,L-p-HPH) | retained enzyme activity (D-hydantoinase [2])
1 | NiSO4 | 4.00 unit/mg | 139% | – | – | –
2 | MgSO4 | 2.69 unit/mg | 94% | – | – | –
3 | FeSO2 | 2.52 unit/mg | – | 87.5% | – | –
4 | ZnSO4 | 1.44 unit/mg | 50% | – | 50% | –
5 | H2O2 | – | – | – | – | 85%
